Source: patent US20230293562A1, “[…] COMBINATION OF GALNAC-OLIGO[…] AND SAPONIN, AND USES THEREOF” (SAPREME TECHNOLOGIES B.V., priority 2020, published 2023)
[BNANC] = BNA^NC bridged nucleic acid nucleoside; {ThiolC6} = thiol C6 linker; d = 2'-deoxy (DNA)

How the values were obtained:
Format in all cases: cell-based
[1] = system: human primary hepatocytes (ASGPR1+); assay: Cell viability assay on human primary hepatocytes; settings: + RNAiMAX
Procedure: (§1) ApoBBNA (ApoBBNA#01, targeting human ApoB mRNA) was conjugated to trivalent-GalNAc ((GalNAc)3) (FIG. 6) and primary hepatocytes (ASGPR1^+) cells were treated with a range of concentrations of (GalNAc)3-ApoBBNA#01 with and without addition of 2000 nM SO1861. ApoB gene silencing in primary hepatocytes (ASGPR1^+) cells was determined.
(§2) ApoB gene silencing in primary hepatocytes (ASGPR1^+) cells was determined. […] The dotted line in the ApoBBNA#02 RNAiMAX indicates concentrations at which toxicity and cell death occurs.
Briefly, the MTS solution was diluted 20× in DMEM without phenol red (PAN-Biotech GmbH) supplemented with 10% FBS. The cells were washed once with 200 µL/PBS well, after which 100 µL diluted MTS solution was added/well. The plate was incubated for approximately 20-30 minutes at 37° C. Subsequently, the OD at 492 nm was measured on a Thermo Scientific Multiskan FC plate reader (Thermo Scientific).

[2] = system: ApoB; assay: ApoB RNA expression analysis (qPCR) in mouse primary hepatocytes; settings: 72 hrs incubation
Procedure: (§3) RNA from cells was isolated using TRI Reagent® Solution (Thermo Scientific) according to the manufacturer’s instruction. Conversion into cDNA was performed using iScript™ cDNA Synthesis Kit (BioRad) using standard protocols. ApoB expression levels and levels of specific hepatocyte housekeeping genes were determined using quantitative real-time PCR assays (qRT-PCR) using iTaq™ Universal SYBR® Green Supermix (BioRad) and the Light Cycler 480 (Roche Diagnostics, Rotkreuz, Switzerland) with specific DNA primers, listed in Table A4 (murine) and Table A2 (human). Analysis was done by the ΔCt method to determine ApoB expression relative to 2 hepatocyte-specific housekeeping control mRNAs. Each analysis reaction was performed in triplicate.
Cryopreserved primary mouse hepatocytes ([…] Cell Culture Technology GmbH, Germany) were thawed in hepatocyte thawing media (HTM, […] Cell Culture Technology GmbH, Germany) and washed 1x with hepatocyte wash media (HWM, […] Cell Culture Technology GmbH, Germany). Cells were re-suspended in hepatocyte plating media (HPM Cryo, […] Cell Culture Technology GmbH, Germany) at a density of approx. 0.275 × 10^6 cells/ml. […] Plating medium was replaced by 315 µl or 108 µl assay media (MHM, […] Cell Culture Technology GmbH, Germany), after which conjugates were added from a 10x concentrated stock solution in PBS.

[3] = system: ApoB; assay: ApoB RNA expression analysis in human primary hepatocytes; settings: read-out: IC50 ApoB gene silencing
Procedure: as §1, §2, §3

How did the IC50 [1] turn out when “ApoBBNA#02: murine and human sequence-compatible ApoB BNA^NC oligonucleotide 5′-GCattggtatTCA-3′ [SEQ ID NO: 12], fully phosphorothioated (antisense GCATTGGTATTCA; sugars from the 5' end [BNANC]2 d8 [BNANC]3, all phosphorothioate, 5' {ThiolC6}, methylation of C not given here)” was run?
The IC50 was 100 nM.

And the “fold less potent in ApoB RNA downmodulation than (GalNAc)3-ApoB#02 BNA + 2000 nM SO1861-EMCH” value [2]?
Its value is 100 - 667 fold.

And the IC50 ([2]; alone, without SO1861-EMCH, read-out: IC50 ApoB RNA expression inhibition)?
The IC50 was 20 nM.

What about the IC50 ([3]; RNAiMAX transfection) of the same substance?
Its IC50 is 5 nM.

And the IC50 ([3]; alone, without SO1861-EMCH)?
Its IC50 is 200 nM.
